Source: ChEMBL document CHEMBL3112442, “Anilino-monoindolylmaleimides as potent and selective JAK3 inhibitors” (Bioorg Med Chem Lett, 2014)

Assays:
[1] = target: Tyrosine-protein kinase JAK1 (Homo sapiens, UniProt P23458)
[2] = target: Non-receptor tyrosine-protein kinase TYK2 (Homo sapiens, UniProt P29597)
[3] = target: T1, Tyrosine-protein kinase JAK3 (Homo sapiens, UniProt P52333)
T1 sequence (P52333 whole entry): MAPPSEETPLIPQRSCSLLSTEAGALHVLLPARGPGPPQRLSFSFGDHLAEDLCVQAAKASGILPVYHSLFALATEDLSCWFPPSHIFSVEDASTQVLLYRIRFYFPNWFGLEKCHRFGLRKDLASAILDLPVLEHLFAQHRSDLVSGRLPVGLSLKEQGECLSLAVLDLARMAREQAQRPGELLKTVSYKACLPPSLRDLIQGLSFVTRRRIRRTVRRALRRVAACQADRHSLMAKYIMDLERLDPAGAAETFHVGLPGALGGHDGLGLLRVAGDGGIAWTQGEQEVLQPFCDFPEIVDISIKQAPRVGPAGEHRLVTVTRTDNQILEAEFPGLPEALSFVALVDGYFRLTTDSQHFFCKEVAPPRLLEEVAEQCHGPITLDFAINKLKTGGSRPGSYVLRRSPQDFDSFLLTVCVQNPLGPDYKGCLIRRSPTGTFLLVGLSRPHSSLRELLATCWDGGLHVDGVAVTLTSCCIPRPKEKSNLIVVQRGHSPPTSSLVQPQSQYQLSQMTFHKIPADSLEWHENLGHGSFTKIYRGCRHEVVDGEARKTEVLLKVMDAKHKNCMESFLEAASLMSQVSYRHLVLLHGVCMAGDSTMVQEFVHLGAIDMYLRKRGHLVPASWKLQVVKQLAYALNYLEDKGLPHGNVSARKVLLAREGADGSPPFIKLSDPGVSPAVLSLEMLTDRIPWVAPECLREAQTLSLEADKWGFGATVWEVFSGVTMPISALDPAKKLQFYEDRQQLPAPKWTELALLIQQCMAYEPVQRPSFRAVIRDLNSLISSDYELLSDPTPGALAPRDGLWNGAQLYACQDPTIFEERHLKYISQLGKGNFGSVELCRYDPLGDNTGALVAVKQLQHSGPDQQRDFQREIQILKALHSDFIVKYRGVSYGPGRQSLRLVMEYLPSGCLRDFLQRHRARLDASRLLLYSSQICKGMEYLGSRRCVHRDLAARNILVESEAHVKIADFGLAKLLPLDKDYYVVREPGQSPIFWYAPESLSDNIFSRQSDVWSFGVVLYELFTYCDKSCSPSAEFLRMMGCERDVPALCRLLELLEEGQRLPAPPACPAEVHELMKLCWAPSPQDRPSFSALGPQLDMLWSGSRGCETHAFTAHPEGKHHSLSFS

Tyrosine-protein kinase JAK1, sequence (P23458 whole entry): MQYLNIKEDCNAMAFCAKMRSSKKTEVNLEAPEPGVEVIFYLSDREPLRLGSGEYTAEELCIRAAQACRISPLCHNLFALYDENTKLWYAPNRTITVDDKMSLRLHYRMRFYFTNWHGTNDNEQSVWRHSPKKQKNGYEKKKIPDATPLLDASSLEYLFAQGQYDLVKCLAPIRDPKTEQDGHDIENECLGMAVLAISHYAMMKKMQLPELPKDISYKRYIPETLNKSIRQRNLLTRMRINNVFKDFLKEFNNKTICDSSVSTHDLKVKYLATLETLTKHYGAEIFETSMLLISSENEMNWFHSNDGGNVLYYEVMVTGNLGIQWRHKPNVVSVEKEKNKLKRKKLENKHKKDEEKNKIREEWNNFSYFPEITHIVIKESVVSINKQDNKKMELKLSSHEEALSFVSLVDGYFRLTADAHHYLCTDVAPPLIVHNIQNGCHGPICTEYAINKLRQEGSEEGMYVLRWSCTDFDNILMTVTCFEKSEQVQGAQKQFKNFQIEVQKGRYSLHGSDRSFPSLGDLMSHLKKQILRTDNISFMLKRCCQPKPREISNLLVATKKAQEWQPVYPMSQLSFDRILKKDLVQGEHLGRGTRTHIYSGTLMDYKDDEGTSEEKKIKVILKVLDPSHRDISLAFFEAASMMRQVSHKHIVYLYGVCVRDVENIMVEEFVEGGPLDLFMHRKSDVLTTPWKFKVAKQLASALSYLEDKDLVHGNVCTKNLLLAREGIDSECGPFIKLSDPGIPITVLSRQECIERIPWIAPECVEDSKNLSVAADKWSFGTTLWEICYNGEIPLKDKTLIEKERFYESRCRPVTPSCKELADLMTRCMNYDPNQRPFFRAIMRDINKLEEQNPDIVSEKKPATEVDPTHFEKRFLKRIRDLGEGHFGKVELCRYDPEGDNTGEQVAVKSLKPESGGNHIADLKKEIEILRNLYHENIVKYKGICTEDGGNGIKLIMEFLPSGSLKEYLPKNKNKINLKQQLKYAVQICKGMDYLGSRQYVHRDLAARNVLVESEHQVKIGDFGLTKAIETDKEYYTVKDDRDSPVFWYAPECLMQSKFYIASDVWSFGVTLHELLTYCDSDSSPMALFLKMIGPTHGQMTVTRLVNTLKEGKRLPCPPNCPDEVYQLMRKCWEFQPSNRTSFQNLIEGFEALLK
Non-receptor tyrosine-protein kinase TYK2, sequence (P29597 whole entry): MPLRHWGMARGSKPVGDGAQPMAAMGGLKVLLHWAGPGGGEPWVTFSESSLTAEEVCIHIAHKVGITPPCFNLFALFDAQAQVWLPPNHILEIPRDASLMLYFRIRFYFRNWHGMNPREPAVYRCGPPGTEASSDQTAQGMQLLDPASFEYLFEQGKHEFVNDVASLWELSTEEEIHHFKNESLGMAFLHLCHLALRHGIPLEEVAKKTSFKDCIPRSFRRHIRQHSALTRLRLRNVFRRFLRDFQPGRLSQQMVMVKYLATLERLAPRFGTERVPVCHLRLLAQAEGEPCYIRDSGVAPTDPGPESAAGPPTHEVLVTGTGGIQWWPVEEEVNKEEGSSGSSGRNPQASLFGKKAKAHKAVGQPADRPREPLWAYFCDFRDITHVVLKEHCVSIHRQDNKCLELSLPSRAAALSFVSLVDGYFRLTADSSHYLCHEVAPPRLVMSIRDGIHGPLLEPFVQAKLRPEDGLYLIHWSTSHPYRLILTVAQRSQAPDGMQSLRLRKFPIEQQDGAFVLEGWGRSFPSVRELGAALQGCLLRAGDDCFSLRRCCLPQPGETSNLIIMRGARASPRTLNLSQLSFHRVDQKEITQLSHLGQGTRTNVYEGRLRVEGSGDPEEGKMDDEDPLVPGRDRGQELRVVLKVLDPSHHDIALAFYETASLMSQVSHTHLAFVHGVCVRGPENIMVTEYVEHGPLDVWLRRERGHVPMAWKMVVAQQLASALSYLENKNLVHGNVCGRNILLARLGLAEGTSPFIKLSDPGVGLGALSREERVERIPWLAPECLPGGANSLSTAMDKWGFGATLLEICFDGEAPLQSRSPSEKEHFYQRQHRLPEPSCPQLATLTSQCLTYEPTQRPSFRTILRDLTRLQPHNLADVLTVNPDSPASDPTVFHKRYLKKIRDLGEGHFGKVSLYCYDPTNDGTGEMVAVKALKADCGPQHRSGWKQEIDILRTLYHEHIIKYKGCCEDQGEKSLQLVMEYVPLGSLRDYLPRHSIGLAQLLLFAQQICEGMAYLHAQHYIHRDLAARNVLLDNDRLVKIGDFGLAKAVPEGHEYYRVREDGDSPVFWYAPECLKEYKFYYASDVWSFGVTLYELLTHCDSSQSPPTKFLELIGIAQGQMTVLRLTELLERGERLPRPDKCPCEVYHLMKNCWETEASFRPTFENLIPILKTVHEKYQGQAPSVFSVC

Row | IC50 [1] [nM] | IC50 [2] [nM] | IC50 [3] [nM] | Structure (SMILES)
1 | 1060 | > 10000 | 135 | O=C1NC(=O)C(c2c[nH]c3ccccc23)=C1Nc1ccc(OCCCNc2ccnc(F)c2)cc1
2 | 2060 | 9840 | 201 | O=C1NC(=O)C(c2c[nH]c3ccccc23)=C1Nc1ccc(OCCNc2ccnc(F)c2)cc1
3 | > 10000 | > 10000 | > 10000 | O=C1NC(=O)C(c2c[nH]c3ccccc23)=C1Nc1ccccc1OCCNc1ccnc(F)c1
4 | 423 | > 10000 | 29 | O=C1NC(=O)C(c2c[nH]c3ccccc23)=C1Nc1cccc(OCCNc2ccnc(F)c2)c1
5 | 1780 | 5100 | 179 | Cn1cc(C2=C(Nc3cccc(OCCNc4ccnc(F)c4)c3)C(=O)NC2=O)c2ccccc21
6 | > 10000 | 995 | 46 | CN(CCOc1cccc(NC2=C(c3c[nH]c4ccccc34)C(=O)NC2=O)c1)c1ccnc(F)c1
7 | – | – | 1500 | O=C1NC(=O)C(c2c[nH]c3ccccc23)=C1Nc1cccc(OCCNc2ccccn2)c1
8 | – | – | 408 | O=C1NC(=O)C(c2c[nH]c3ccccc23)=C1Nc1cccc(OCCNc2cnccn2)c1
9 | – | – | 1380 | O=C1NC(=O)C(c2c[nH]c3ccccc23)=C1Nc1cccc(OCCNc2ccccc2)c1
10 | – | – | 1390 | O=C1NC(=O)C(c2c[nH]c3ccccc23)=C1Nc1cccc(OCCNc2cc(F)cc(F)c2)c1
11 | 2170 | > 10000 | 576 | O=C1NC(=O)C(c2ccccc2)=C1Nc1cccc(OCCNc2ccnc(F)c2)c1
12 | > 10000 | > 10000 | > 10000 | O=C1C=C(Nc2cccc(OCCNc3ccnc(F)c3)c2)C(=O)N1

More lines, now with the values behind:

Row | Structure (SMILES) | IC50 [1] [nM] | IC50 [2] [nM] | IC50 [3] [nM]
13 | CC(C)(O)C(=O)N1CCN(c2ccc(C(F)(F)F)c(C3=C(c4c[nH]c5ccccc45)C(=O)NC3=O)c2)CC1 | 311 | 1690 | –
14 | O=C1NC(=O)C(c2c[nH]c3ccccc23)=C1Nc1cccc(O[C@H]2CCN(c3ccnc(F)c3)C2)c1 | 628 | – | 13
15 | O=C1NC(=O)C(c2c[nH]c3ccccc23)=C1Nc1cccc(O[C@@H]2CCN(c3ccnc(F)c3)C2)c1 | 4900 | > 10000 | 497
16 | O=C1NC(=O)C(c2c[nH]c3ccccc23)=C1Nc1cccc(C2CCN(c3ccnc(F)c3)CC2)c1 | > 10000 | > 10000 | > 10000
17 | O=C1NC(=O)C(c2c[nH]c3ccccc23)=C1Nc1cccc(C2CN(c3ccnc(F)c3)C2)c1 | 11100 | > 10000 | 576
18 | O=C1NC(=O)C(c2c[nH]c3ccccc23)=C1Nc1cccc(OCCCn2ccnc2)c1 | 300 | > 10000 | 128
19 | O=C1NC(=O)C(c2c[nH]c3ccccc23)=C1Nc1cccc(OCCn2ccnc2)c1 | > 10000 | > 10000 | 1790
20 | O=C1NC(=O)C(c2c[nH]c3ccccc23)=C1Nc1ccc(OCCn2ccnc2)cc1 | > 10000 | 7370 | 278
21 | O=C1NC(=O)C(c2c[nH]c3ccccc23)=C1Nc1ccc(OCCCn2ccnc2)cc1 | 8640 | > 10000 | 1150
22 | O=C1NC(=O)C(c2c[nH]c3ccccc23)=C1Nc1ccccc1OCCn1ccnc1 | > 10000 | > 10000 | 9370
23 | O=C1NC(=O)C(c2c[nH]c3ccccc23)=C1Nc1cccc(OC2CCN(c3ccnc(F)c3)CC2)c1 | 4820 | > 10000 | 625
24 | O=C1NC(=O)C(c2c[nH]c3ccccc23)=C1Nc1cccc(OC2CN(c3ccnc(F)c3)C2)c1 | 4100 | > 10000 | 200
25 | O=C1NC(=O)C(c2cn(CCCn3ccnc3)c3ccccc23)=C1Nc1ccccc1 | 770 | 2310 | 17
26 | O=C1NC(=O)C(c2c[nH]c3ccccc23)=C1Nc1cccc(C2CCN(c3ccnc(F)c3)C2)c1 (racemic) | > 10000 | > 10000 | > 10000
27 | O=C1NC(=O)C(c2c[nH]c3ccccc23)=C1Nc1cccc(OC2CCCN(c3ccnc(F)c3)C2)c1 (racemic) | > 10000 | > 10000 | 163
28 | O=C1NC(=O)C(c2c[nH]c3ccccc23)=C1Nc1cccc(OC2CCN(c3ccnc(F)c3)C2)c1 (racemic) | 564 | 11900 | 12
